Measured values from ChEMBL document CHEMBL1201862, “PubChem BioAssay data set” (2004).
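Growth conditions: 96-well plates. Treatment: test compound, 48 hours, 5 concentrations. Analysis: linear interpolation between bracketing concentrations; unreached endpoints set to highest concentration. GI50: concentration for 50% inhibition of growth.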 Activity calls are given as the source filed them. Rule as the data show it: active = GI50 up to about 1.1 µM and inactive = higher.

Key:
Assay in all cases: inhibition of tumour cell growth, NCI panel, 48 h
[1] = system: 786-0
[2] = system: PC-3
[3] = system: BT-549
[4] = system: KM12
[5] = system: UO-31
[6] = system: A549
[7] = system: SK-MEL-2
[8] = system: HOP-92
[9] = system: A498
[10] = system: SK-MEL-28
[11] = system: OVCAR-4
[12] = system: ACHN
[13] = system: OVCAR-5
[14] = system: SF-295
[15] = system: MDA-N
[16] = system: TK-10
[17] = system: Malme-3M
[18] = system: SF-539
[19] = system: MDA-MB-435
[20] = system: HL-60
[21] = system: M14
[22] = system: NCI-H522
[23] = system: NCI-H226
[24] = system: RXF 393
[25] = system: UACC-62
[26] = system: NCI/ADR-RES
[27] = system: T47D
[28] = system: COLO 205
[29] = system: SW-620
[30] = system: LOX IMVI
[31] = system: CAKI-1
[32] = system: HOP-62
[33] = system: EKVX
[34] = system: SN12C
[35] = system: Hs-578T
[36] = system: U-251
[37] = system: K562
[38] = system: HCC 2998
[39] = system: DU-145
[40] = system: OVCAR-3
[41] = system: HCT-116
[42] = system: SR
[43] = system: SNB-75
[44] = system: HT-29
[45] = system: CCRF-CEM
[46] = system: HCT-15
[47] = system: IGROV-1
[48] = system: NCI-H460
[49] = system: NCI-H23
[50] = system: OVCAR-8
[51] = system: RPMI-8226
[52] = system: SF-268
[53] = system: MCF7
[54] = system: SK-MEL-5
[55] = system: SK-OV-3
[56] = system: MDA-MB-231
[57] = system: UACC-257
[58] = system: SNB-19
[59] = system: MOLT-4

For `NC(=O)C(C(N)=O)=C(O)/C(O)=C/C(=O)c1ccccc1`, the GI50 [1] was > 100 µM (inactive), the GI50 [2] was > 100 µM (inactive) and the GI50 [3] was 48.5 µM (inactive). The GI50 [4] was > 100 µM (inactive), the GI50 [5] was > 100 µM (inactive) and the GI50 [6] was > 100 µM (inactive). The GI50 [7] was > 100 µM (inactive), the GI50 [8] was > 100 µM (inactive) and the GI50 [9] was > 100 µM (inactive). The GI50 [10] was > 100 µM (inactive), the GI50 [11] was > 100 µM (inactive) and the GI50 [12] was > 100 µM (inactive). For the same compound, the GI50 [13] was > 100 µM (inactive), the GI50 [14] was > 100 µM (inactive) and the GI50 [15] was > 100 µM (inactive). The GI50 [16] was > 100 µM (inactive), the GI50 [17] was 39.9 µM (inactive) and the GI50 [18] was > 100 µM (inactive). The GI50 [19] was > 100 µM (inactive), the GI50 [20] was 28.4 µM (inactive) and the GI50 [21] was > 100 µM (inactive). The GI50 [22] was 16.4 µM (inactive), the GI50 [23] was > 100 µM (inactive) and the GI50 [24] was > 100 µM (inactive). The GI50 [25] was > 100 µM (inactive), the GI50 [26] was > 100 µM (inactive) and the GI50 [27] was > 100 µM (inactive). The GI50 [28] was > 100 µM (inactive), the GI50 [29] was 81.1 µM (inactive) and the GI50 [30] was 89.9 µM (inactive). For the same compound, the GI50 [31] was > 100 µM (inactive), the GI50 [32] was > 100 µM (inactive) and the GI50 [33] was > 100 µM (inactive). The GI50 [34] was > 100 µM (inactive), the GI50 [35] was > 100 µM (inactive) and the GI50 [36] was > 100 µM (inactive). For the same compound, the GI50 [37] was 0.0652 µM (active), the GI50 [38] was > 100 µM (inactive) and the GI50 [39] was > 100 µM (inactive). The GI50 [40] was 51.4 µM (inactive), the GI50 [41] was > 100 µM (inactive) and the GI50 [42] was 1.99 µM (inactive). The GI50 [43] was > 100 µM (inactive), the GI50 [44] was > 100 µM (inactive) and the GI50 [45] was 21.5 µM (inactive). The GI50 [46] was > 100 µM, the GI50 [47] was > 100 µM (inactive) and the GI50 [48] was > 100 µM (inactive). For the same compound, the GI50 [49] was > 100 µM (inactive), the GI50 [50] was > 100 µM (inactive) and the GI50 [51] was 12.6 µM (inactive). For the same compound, the GI50 [52] was > 100 µM (inactive), the GI50 [53] was 0.849 µM (active) and the GI50 [54] was 73.8 µM (inactive). For the same compound, the GI50 [55] was > 100 µM (inactive), the GI50 [56] was > 100 µM (inactive) and the GI50 [57] was > 100 µM (inactive). The GI50 [58] was > 100 µM (inactive).
`CCN(CC)c1ncnc2c1ncn2CCNC(CO)(CO)CO` was tested, and the GI50 [1] was > 100 µM (inactive), the GI50 [2] was > 100 µM (inactive) and the GI50 [3] was > 100 µM (inactive). For the same compound, the GI50 [4] was > 100 µM (inactive), the GI50 [5] was > 100 µM (inactive) and the GI50 [6] was > 100 µM (inactive). For the same compound, the GI50 [7] was > 100 µM (inactive), the GI50 [8] was > 100 µM (inactive) and the GI50 [9] was > 100 µM (inactive). For the same compound, the GI50 [59] was > 100 µM (inactive), the GI50 [10] was > 100 µM (inactive) and the GI50 [11] was > 100 µM (inactive). For the same compound, the GI50 [12] was > 100 µM (inactive), the GI50 [13] was > 100 µM (inactive) and the GI50 [14] was > 100 µM (inactive). For the same compound, the GI50 [15] was > 100 µM (inactive), the GI50 [16] was > 100 µM (inactive) and the GI50 [17] was > 100 µM (inactive). The GI50 [18] was > 100 µM (inactive), the GI50 [19] was > 100 µM (inactive) and the GI50 [20] was > 100 µM (inactive). For the same compound, the GI50 [21] was > 100 µM (inactive), the GI50 [22] was > 100 µM (inactive) and the GI50 [23] was > 100 µM (inactive). The GI50 [24] was > 100 µM (inactive), the GI50 [25] was > 100 µM (inactive) and the GI50 [26] was > 100 µM (inactive). For the same compound, the GI50 [27] was > 100 µM (inactive), the GI50 [28] was > 100 µM (inactive) and the GI50 [29] was > 100 µM (inactive). For the same compound, the GI50 [30] was > 100 µM (inactive), the GI50 [31] was > 100 µM (inactive) and the GI50 [32] was > 100 µM (inactive). The GI50 [33] was > 100 µM (inactive), the GI50 [34] was > 100 µM (inactive) and the GI50 [35] was > 100 µM (inactive). The GI50 [36] was > 100 µM (inactive), the GI50 [37] was > 100 µM (inactive) and the GI50 [38] was > 100 µM (inactive). For the same compound, the GI50 [39] was > 100 µM (inactive), the GI50 [40] was > 100 µM (inactive) and the GI50 [41] was > 100 µM (inactive). For the same compound, the GI50 [42] was > 100 µM (inactive), the GI50 [43] was > 100 µM (inactive) and the GI50 [44] was > 100 µM (inactive). For the same compound, the GI50 [45] was > 100 µM (inactive), the GI50 [46] was > 100 µM and the GI50 [47] was > 100 µM (inactive). The GI50 [48] was > 100 µM (inactive), the GI50 [49] was > 100 µM (inactive) and the GI50 [50] was > 100 µM (inactive). The GI50 [51] was > 100 µM (inactive), the GI50 [52] was > 100 µM (inactive) and the GI50 [53] was > 100 µM (inactive). For the same compound, the GI50 [54] was > 100 µM (inactive), the GI50 [55] was > 100 µM (inactive) and the GI50 [56] was > 100 µM (inactive). For the same compound, the GI50 [57] was > 100 µM (inactive) and the GI50 [58] was > 100 µM (inactive).
